For data set [1] the following is noted: cited from earlier work; for pKa: ammonium pKa (Brown 1955).
A short description of data set [2]: pKa determination by 31P NMR spectroscopy. To be noted: control experiment, sodium phosphate buffer containing 20% v/v D2O. The format is physicochemical. The protocol:
The pKa values of phosphinothiols 33-35 were determined to quantitate the impact of Coulombic effects. […] Thus, the phosphorous pKa value of the cationic phosphinothiols appears to be below the limit of experimental detection. […] (Moore, S. J.; Marzilli, L. G. Inorg. Chem. 1998, 37, 5329-810 5335.) That value is much larger than the phosphorous pKa of phosphinothiols 33-35, consistent with the present hypothesis that through-space Coulombic effects lower the pKa of neighboring atoms, and in particular discourage protonation of the key iminophosphorane intermediate.
pKa Determination of phosphinothiols […] (10 mg) were each dissolved in sodium phosphate buffer containing 20% v/v D2O. 750 The solution was adjusted with a solution of either 6 N HCl or 2 N NaOH, and chemical shifts at each pH were determined by ^31P NMR spectroscopy. An external standard (D3PO4) was used to calibrate the chemical shifts. […] (Podlaha, J.; Podlahova, J. Collect. Czech. Chem. Commun. 1973, 38, 1730-1736.)

For data set [3] the following is noted: Gly+Gly coupling in DMF/D2O (6:1), reported previously; cited from earlier work.
Data set [4] in a line: Solubility in water or aqueous sodium phosphate buffer. The format is physicochemical. To be noted: 0.4 M sodium phosphate buffer (pH 7.8).
Data set [5] is described as follows: Stability in air / on storage. The conditions noted are these: chloride salt, solid. Format: physicochemical.

These results are taken from patent US8410247B2, “Water-soluble phosphinothiol reagents” (Wisconsin Alumni Research Foundation, priority 2008, dated 2013).

SMILES strings stand for the structures. ≈ marks a conversion by molar mass, not a printed value. Where two headings read alike, the source gives them in different places.

For the compound `Fc1ccc(P(c2ccc(F)cc2)c2ccc(F)cc2)cc1` [(p-F—C6H4)3P], in data set [1] (in water (Moore 1998)), the “phosphorous pKa” value was 1.97.
For the compound `COc1ccc(P(c2ccc(OC)cc2)c2ccc(OC)cc2)cc1` [(p-OMe-C6H4)3P], the “phosphorous pKa” value in data set [1] (in water (Moore 1998)) is 4.57.
For `CCCCCCN` [CH3(CH2)5NH3^+], the pKa in data set [1] is listed as 10.63.
For the compound `CCCCCCCCCN` [CH3(CH2)8NH3^+], in data set [1], the pKa was 10.65.
With `CCP(c1ccccc1)c1ccccc1` [EtPPh2], the “phosphorous pKa” value in data set [1] (neutral mimic of HSCH2PPh2 (Moore 1998)) is on record as 4.90.
For the compound `c1ccc(P(c2ccccc2)c2ccccc2)cc1` [Ph3P], in data set [1] (in water (Moore 1998)), the “phosphorous pKa” value was 2.73.
`O=C(O)CCP(CCC(=O)O)CCC(=O)O` [TCEP, tris(2-carboxyethyl)phosphine]: the pKa in data set [2] stood at 7.7. The “pKa, reported value” in data set [1] (reported value (Podlaha 1973)) is 7.66.
In the case of `NCCCCCN` [^+H3N(CH2)5NH3^+], in data set [1], the pKa is recorded as 9.74.
On to `NCCCCCCCCN` [^+H3N(CH2)8NH3^+], for which the pKa in data set [1] is 10.10.
Regarding `SCP(c1ccccc1)c1ccccc1` [phosphinothiol 1, (Diphenylphosphino)methanethiol], in data set [3], the “second-order rate constant k2” value was 0.0077 M⁻¹ s⁻¹.
In the case of `O=C(O)CNC(=O)c1ccc(P(CS)c2ccc(C(=O)NCC(=O)O)cc2)cc1` [phosphinothiol 9], the solubility in data set [4] was approximately 50 mM (≈ 21.7 mg/mL).
As for `CN(C)CCc1ccc(P(CS)c2ccc(CCN(C)C)cc2)cc1` [phosphinothiol 17, bis(p-dimethylaminoethyl) phosphinomethanethiol], the solubility in data set [4] (aqueous buffer, chloride salt, read-out: solubility) was more than 1000 mM. Also, the stability in air entry in data set [5] is “stable in air for several days”.
